# What was measured:
# Rat ASCT2 = target: T1, Rat ASCT2 (Rattus norvegicus, UniProt D3ZJ25); format: cell-based
# T1 sequence (D3ZJ25 1-555): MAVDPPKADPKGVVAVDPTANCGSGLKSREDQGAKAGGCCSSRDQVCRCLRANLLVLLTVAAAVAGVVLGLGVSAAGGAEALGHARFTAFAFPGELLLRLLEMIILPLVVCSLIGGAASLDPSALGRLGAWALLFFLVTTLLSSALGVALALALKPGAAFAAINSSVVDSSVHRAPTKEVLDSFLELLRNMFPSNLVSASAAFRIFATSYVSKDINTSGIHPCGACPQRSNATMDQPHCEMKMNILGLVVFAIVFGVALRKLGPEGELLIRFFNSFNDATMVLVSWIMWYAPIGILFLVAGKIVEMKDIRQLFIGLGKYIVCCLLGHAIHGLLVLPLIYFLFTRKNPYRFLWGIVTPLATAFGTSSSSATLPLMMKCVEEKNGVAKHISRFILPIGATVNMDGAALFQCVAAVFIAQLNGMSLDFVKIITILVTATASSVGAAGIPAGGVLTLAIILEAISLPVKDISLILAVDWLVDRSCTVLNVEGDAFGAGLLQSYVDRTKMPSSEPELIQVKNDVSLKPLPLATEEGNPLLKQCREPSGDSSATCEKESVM
# ASCT2 = details: commercially available ASCT2 inhibitor; cited from earlier work
smiles,measurement,setting,value
O=C(O)[C@@H]1C[C@@H](Cc2ccccc2F)CN1 [(R)-γ-(2-fluoro-benzyl)-L-proline],Ki,Rat ASCT2,83 ± 20 µM
O=C(O)[C@@H]1C[C@@H](Cc2ccc(-c3ccccc3)cc2)CN1 [(R)-γ-(4-biphenylmethyl)-L-proline],higher affinity compared to any other ASCT2 inhibitor tested so far,"Rat ASCT2; compared to authors' earlier ASCT2 inhibitors [11],[15]",about 8 fold
N[C@@H](CCC(=O)Nc1ccc([N+](=O)[O-])cc1)C(=O)O [L-γ-glutamyl-nitroanilide],affinity for ASCT2,ASCT2,mM affinity
O=C(O)[C@@H]1CCCN1 [proline],activity in ASCT2,Rat ASCT2; concentration up to 1 mM,does not induce any activity

# Source: article PMC5363072 (Bioorganic & medicinal chemistry letters, 2016)
